# Like-named read-outs stand apart in the source and are kept apart here.
# Tests used:
# NCI-H322M = assay: SRB 48 h growth assay, Non-small Cell Lung NCI-H322M; type: cell-based, human; conditions: for GI50 / CC50: Homo sapiens; for CC50: read-out: Log10 LC50 (converted)
# NCI-H460 = assay: SRB 48 h growth assay, Non-small Cell Lung NCI-H460; type: cell-based, human; conditions: for GI50: Homo sapiens
# COLO 205 = assay: SRB 48 h growth assay, Colon COLO 205; type: cell-based, human; conditions: COLO 205, Colon; for GI50 / CC50: Homo sapiens; for CC50: read-out: Log10 LC50 (converted)
# HCT-15 = assay: SRB 48 h growth assay, Colon HCT-15; type: cell-based, human; conditions: HCT-15, Colon
# HT-29 = assay: SRB 48 h growth assay, Colon HT-29; type: cell-based, human; conditions: HT-29, Colon; for GI50 / CC50: Homo sapiens; for CC50: read-out: Log10 LC50 (converted)
# SF-268 = assay: SRB 48 h growth assay, CNS SF-268; type: cell-based, human; conditions: SF-268, CNS; for GI50 / CC50: Homo sapiens; for CC50: read-out: Log10 LC50 (converted)
# SF-539 = assay: SRB 48 h growth assay, CNS SF-539; type: cell-based, human; conditions: SF-539, CNS
# SK-MEL-28 = assay: SRB 48 h growth assay, Melanoma SK-MEL-28; type: cell-based, human; conditions: SK-MEL-28, Melanoma
# IGROV1 = assay: SRB 48 h growth assay, Ovarian IGROV1; type: cell-based, human; conditions: for GI50 / CC50: Homo sapiens; for CC50: IGROV-1, read-out: Log10 LC50 (converted)
# SN12C = assay: SRB 48 h growth assay, Renal SN12C; type: cell-based, human; conditions: for GI50 / CC50: Homo sapiens; for CC50: read-out: Log10 LC50 (converted)
# UO-31 = assay: SRB 48 h growth assay, Renal UO-31; type: cell-based, human; conditions: UO-31, Renal; for GI50 / CC50: Homo sapiens; for CC50: read-out: Log10 LC50 (converted)
# T-47D = assay: SRB 48 h growth assay, Breast T-47D; type: cell-based, human
# MOLT-4 = assay: SRB 48 h growth assay, Leukemia MOLT-4; type: cell-based, human; conditions: MOLT-4, Leukemia
# SR = assay: SRB 48 h growth assay, Leukemia SR; type: cell-based, human; conditions: Homo sapiens
# [1] = tested on: eight renal cancer cell line (786-0, A498, ACHN, CAKI-1, SN12C, TK-10, UO-31 and RXF 393); assay: in vitro anticancer activity, renal panel; type: cell-based; conditions: Homo sapiens; eight renal cancer cell lines, exposure at least 48 h; read-out: in vitro anticancer activity, range over panel
# [2] = read-out: Growth Inhibition GI50
# [3] = read-out: Log10 GI50 (converted)
# [4] = Homo sapiens, read-out: Growth Inhibition GI50
# [5] = Homo sapiens, read-out: Log10 GI50 (converted)
# [6] = Homo sapiens, read-out: Log10 LC50 (converted)
# [7] = IGROV-1, read-out: Growth Inhibition GI50
# [8] = IGROV-1, read-out: Log10 GI50 (converted)
# [9] = Homo sapiens, T47D, read-out: Growth Inhibition GI50
# [10] = Homo sapiens, T47D, read-out: Log10 GI50 (converted)
compound,measurement,setting,value
"C#Cc1ccc(-n2c(/C=C/c3cc(OC)c(OC)c(OC)c3)nc3ncccc3c2=O)cc1 [4q, (E)-3-(4-Ethynylphenyl)-2-(3,4,5-trimethoxystyryl)pyrido[2,3-d]pyrimidin-4(3H)-one]",Log10 TGI50,NCI-H322M,>−4.00
same,GI50,NCI-H322M; [2],14.1 µM
same,GI50,NCI-H322M; [3],14.1 µM
same,CC50,NCI-H322M,> 100 µM
same,Log10 TGI50,NCI-H460,−4.60
same,GI50,NCI-H460; [2],4.11 µM
same,GI50,NCI-H460; [3],4.07 µM
same,Log10 TGI50,COLO 205,−4.92
same,GI50,COLO 205; [2],3.19 µM
same,GI50,COLO 205; [3],3.16 µM
same,CC50,COLO 205,> 100 µM
same,Log10 TGI50,HCT-15,>−4.00
same,GI50,HCT-15; [4],5.58 µM
same,GI50,HCT-15; [5],5.62 µM
same,CC50,HCT-15; [6],> 100 µM
same,Log10 TGI50,HT-29,−4.82
same,GI50,HT-29; [2],3.92 µM
same,GI50,HT-29; [3],3.89 µM
same,CC50,HT-29,> 100 µM
same,GI50,SF-268; [2],5.33 µM
same,GI50,SF-268; [3],5.37 µM
same,CC50,SF-268,> 100 µM
same,Log10 TGI50,SF-268,−4.01
same,GI50,SF-539; [4],4.57 µM
same,GI50,SF-539; [5],4.57 µM
same,CC50,SF-539; [6],> 100 µM
same,Log10 TGI50,SF-539,−4.42
same,GI50,SK-MEL-28; [4],34.6 µM
same,GI50,SK-MEL-28; [5],34.7 µM
same,CC50,SK-MEL-28; [6],> 100 µM
same,Log10 TGI50,SK-MEL-28,>−4.00
same,Log10 TGI50,IGROV1,>−4.00
same,GI50,IGROV1; [7],6.08 µM
same,GI50,IGROV1; [8],6.03 µM
same,CC50,IGROV1,> 100 µM
same,Log10 TGI50,SN12C,>−4.00
same,GI50,SN12C; [2],20.5 µM
same,GI50,SN12C; [3],20.4 µM
same,CC50,SN12C,> 100 µM
same,GI50,UO-31; [2],4.09 µM
same,GI50,UO-31; [3],4.07 µM
same,CC50,UO-31,> 100 µM
same,Log10 TGI50,UO-31,>−4.00
same,Log10 TGI50,T-47D,>−4.00
same,GI50,T-47D; [9],5.85 µM
same,GI50,T-47D; [10],5.89 µM
same,CC50,"T-47D; Homo sapiens, T47D, read-out: Log10 LC50 (converted)",> 100 µM
"C#Cc1ccc(-n2c(/C=C/c3ccc4ccccc4n3)nc3ncccc3c2=O)cc1 [4t, (E)-3-(4-Ethynylphenyl)-2-(2-(quinolin-2-yl)vinyl)pyrido[2,3-d]pyrimidin-4(3H)-one]",GI50,MOLT-4; [4],0.45 µM
same,GI50,MOLT-4; [5],0.457 µM
same,CC50,MOLT-4; [6],> 100 µM
same,Log10 TGI50,MOLT-4,>−4.00
same,GI50,SR; [2],0.27 µM
same,GI50,SR; [3],0.275 µM
same,CC50,SR; read-out: Log10 LC50 (converted),> 100 µM
same,Log10 TGI50,NCI-H322M,−5.62
same,GI50,NCI-H322M; [2],0.52 µM
same,GI50,NCI-H322M; [3],0.525 µM
same,CC50,NCI-H322M,> 100 µM
same,Log10 TGI50,NCI-H460,−6.03
same,GI50,NCI-H460; [2],0.29 µM
same,GI50,NCI-H460; [3],0.302 µM
same,Log10 TGI50,COLO 205,−6.13
same,GI50,COLO 205; [2],0.3 µM
same,GI50,COLO 205; [3],0.302 µM
same,CC50,COLO 205,3.63 µM
same,Log10 TGI50,HCT-15,−5.88
same,GI50,HCT-15; [4],0.32 µM
same,GI50,HCT-15; [5],0.331 µM
same,Log10 TGI50,HT-29,−5.96
same,GI50,HT-29; [2],0.36 µM
same,GI50,HT-29; [3],0.372 µM
same,CC50,HT-29,4.27 µM
same,GI50,SF-268; [2],0.38 µM
same,GI50,SF-268; [3],0.389 µM
same,CC50,SF-268,> 100 µM
same,Log10 TGI50,SF-268,−5.74
same,GI50,SF-539; [4],0.2 µM
same,GI50,SF-539; [5],0.204 µM
same,Log10 TGI50,SF-539,−6.29
same,GI50,SK-MEL-28; [4],1.05 µM
same,GI50,SK-MEL-28; [5],1.05 µM
same,Log10 TGI50,SK-MEL-28,−5.51
same,Log10 TGI50,IGROV1,−5.87
same,GI50,IGROV1; [7],0.4 µM
same,GI50,IGROV1; [8],0.398 µM
same,CC50,IGROV1,5.37 µM
same,Log10 TGI50,SN12C,−5.67
same,GI50,SN12C; [2],0.39 µM
same,GI50,SN12C; [3],0.389 µM
same,CC50,SN12C,> 100 µM
same,GI50,UO-31; [2],0.31 µM
same,GI50,UO-31; [3],0.316 µM
same,CC50,UO-31,6.92 µM
same,Log10 TGI50,UO-31,−5.78
same,Log10 TGI50,T-47D,−6.05
same,GI50,T-47D; [9],0.29 µM
same,GI50,T-47D; [10],0.295 µM
same,GI50,[1],1.48 to 8.78 µM

# From patent US9783537B2, “3-(4-ethylnylphenyl) pyridopyrimidinone compounds and process for preparation thereof useful as potential anticancer agents” (Council of Scientific & Industrial Research, priority 2013, dated 2017)
